This note sets out measurements from patent US20080234183A1, “Cell Penetrating Peptides” (priority 2002, published 2008).

For one test, the target named is T1, MMP2 (Homo sapiens, UniProt P08253).
T1 construct: check the specific cleavage of YTA-2 ps by active MMP-2
T1 sequence (P08253 110-660): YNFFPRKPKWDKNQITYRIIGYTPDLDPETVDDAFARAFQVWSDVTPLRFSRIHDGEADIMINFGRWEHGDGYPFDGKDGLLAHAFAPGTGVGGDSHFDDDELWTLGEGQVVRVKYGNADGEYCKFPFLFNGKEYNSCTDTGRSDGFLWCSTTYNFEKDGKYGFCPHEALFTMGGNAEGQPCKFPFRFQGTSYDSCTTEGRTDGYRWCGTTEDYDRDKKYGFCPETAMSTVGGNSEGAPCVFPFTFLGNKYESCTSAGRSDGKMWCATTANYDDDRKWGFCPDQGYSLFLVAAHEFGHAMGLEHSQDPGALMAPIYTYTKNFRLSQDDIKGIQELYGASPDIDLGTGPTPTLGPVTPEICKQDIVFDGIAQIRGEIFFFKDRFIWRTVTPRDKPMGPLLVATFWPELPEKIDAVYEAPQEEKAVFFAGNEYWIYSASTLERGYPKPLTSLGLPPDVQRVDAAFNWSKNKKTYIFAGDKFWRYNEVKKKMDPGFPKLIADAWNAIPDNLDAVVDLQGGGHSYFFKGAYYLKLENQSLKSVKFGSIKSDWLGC
Nature of the test: Specific cleavage by matrix metallo proteinase-2. In kind it is biochemical. Particulars: mass spectrometry, data not shown. How it is done:
(data not shown). […] The next step in the development of this technique is to check the specific cleavage of YTA-2 ps by active MMP-2. It is performed by a fluorescence/quencher assay, wherein the MMP-2 substrate YTA-2 ps upon cleavage increases in fluorescence intensity. The correct cleavage is further checked by mass spectrometry.

In the next test the test system is cells. Description: Protein internalisation by YTA-2 of Fluo-Streptavidin. Format: cell-based. Particulars: 67 kDa fluorescein labelled streptavidin linked to biotinylated peptide. How it is done: FIG. 39. Protein internalisation by YTA-2 of Fluo-Streptavidin 37° C. and T/E, showing the delivery property of a selCPP.
FIG. 40. Protein internalisation by YTA-2 of Fluo-Streptavidin 4° C. and T/E, showing the delivery property and temperature independency of a selCPP.

The test system of another test is LoVo cells. Nature of the test: Internalisation of biotinylated selCPPs, fluorescence microscopy. Format: cell-based, human. The method, then:
One aspect of the present invention thus comprises a method for screening the cellular uptake of a broad variety of CPPs in vitro, wherein cells are grown on glass cover slips to suitable, such as 50%, density, whereupon the media is changed to serum free and a blotinylated peptide solution is added. The cells are then incubated, washed, fixed and the peptides are visualised by staining with, e.g. avidin-FITC, or streptavidin-TRITC, and the cell nuclei are counterstained, e.g. with Hoechst. Images are preferably obtained with a fluorescence microscope and evaluated.
FIG. 5. Example of inactivated selCPP. Internalisation of YTA-2 (A) compared to YTA-2 ps (B) In LoVo cells, both biotynilated peptides detected by TRITC-avidin at 37° C.
The cells were grown on round glass cover slips (12 mm, GTF, Sweden) in a 24-well plate to approximately 50% confluence. The media was changed to serum free and the biotinylated peptide solutions were added. The cells were incubated for 30 min at 37 or 4° C. The cells were washed twice with PBS, fixed with 4% paraformaldehyde solution 15 min at room temperature (dark) and then permeabilised in 30 mM HEPES buffer containing 0.5% w/v Triton X-100, 3 min on Ice. Sites for unspecific binding were blocked In PBS containing 3% (w/v) bovine serum albumin, overnight at 4° C. The peptides were visualised by staining with avidin-FrTC or streptavidin-TRITC (Molecular Probes, the Netherlands). The cell nuclei were stained with Hoechst 33258 (0.5 μg/ml) for 5 min, after which the cover slips were washed 3 times with PBS and mounted in 25% glycerol in PBS. The images were obtained with a Leica DM IRE2 fluorescence microscope (Leica Microsystem., Sweden) and processed in PhotoShop 6.0 software (Adobe Systems Inc., CA) (See e.g. FIG. 38-40).

A further test deals with Bowes cells. Nature of the test: Cell viability measurement (CellTiter-Glo). The conditions noted are these: 24 h in 10% FBS-MEM. Format: cell-based, human. How it is done:
Bowes human melanoma cells were obtained from American Type Culture Collection (Manassas, Va.). Bowes cells were cultured in Minimal Essential Medium with Earie's sats complemented with Glutamax-I, non-essential amino acids, sodium pyruvate, penicillin, streptomycin (referred on figures as “MEM”) and 10% foetal bovine serum (FBS). All media components for Bowes cells were from invitrogen Corporation (Paisley, UK). Trypsin/EDTA was from PAA laboratories GmbH (Linz, Austria). Cells were subcultured once a week, seeding 200 000 cells per T75. For the viability assays, 50 000 cells (in 300 μl) were seeded per a well in a 24-well-plate a day before the experiment. K562 human erythroleukemia cells were obtained from American Type Culture Collection (Manassas, Va.). K562 cells were cultured in RPMI-1640 medium complemented with Glutamax-I, penicillin, streptomycin (referred in FIG. 32-35 as “RPMI”) and foetal bovine serum (7.5%). All media components for K562 cells were from invitrogen Corporation (Paisley, UK). […]
The stock solutions of the conjugates (1 mM) were prepared in sterile water and the stock solution of MTX in 10% DMSO in water. […] Then 300 μl was transferred to a white polystyrene FluoroNunc™ plate (Nunc A/S, Roskilde, Denmark) and luminescence was recorded at dual-scanning microplate spectrofluorometer (SPECTRAmax® GEMINI XS, Molecular Devices, Sunnyvale, Calif.).
In general terms: Cellular ATP, detected with luciferase, serves as a proxy for viable cell number.

On to YTAIAWVKAFIRKLRK [YTA-2], for which the “cleavage by MMP2” value with MMP2 is given as “confirmed by mass spectrometry”. The cargo transport result with cells is listed as “can transport large cargo molecules into cells”. Further, in the test on LoVo cells, the “Comment (staining/localisation)” value is given as “stain also nuclear”. Further, the Entry into cells result with LoVo cells (37° and 4° C.) is given as “can efficiently enter cells”.

With Apa-γGlu-Gly-pVEC, the “toxic effect on cell viability” value in the test with Bowes cells is listed as “more toxic than Apa-Glu-Gly-pVEC”.
